According to article PMC2893400 (Biomedical chromatography : BMC, 2010):

Experiments:
[1] = Stability of stock solutions in methanol at 4°C; type: physicochemical; details: stock solution in methanol stored at 4°C, up to 7 days
[2] = Stability post extraction, reconstituted in methanol at room temperature; type: physicochemical; details: kept at room temperature

Degradation of stock solution [1] | Degradation reconstituted in methanol after recovery [2] | Structure (SMILES)
no degradation after 7 days | no degradation | O=C(CCCN1CCCN(c2ccc(Cl)cc2)CC1)c1ccc(F)cc1 [DAL, 4-[4-(4-Chlorophenyl)-1,4-diazepan-1-yl]-1-(4-fluorophenyl) butan-1-one]
no degradation after 7 days | no degradation | O=C(CCCN1CC=C(n2c(=O)[nH]c3ccccc32)CC1)c1ccc(F)cc1 [DRO, droperidol]

Structure (SMILES) | Degradation of stock solution [1] | Degradation reconstituted in methanol after recovery [2]
CC(C)C[C@H]1C(=O)N2CCC[C@H]2[C@]2(O)O[C@](NC(=O)[C@@H]3C=C4c5cccc6[nH]c(Br)c(c56)C[C@H]4N(C)C3)(C(C)C)C(=O)N12 [BCT, bromocriptine] | began to degrade significantly after 3 days | 
